According to patent publication US7962204B2 (priority 2001, dated 2011):

Experiments:
[1] = tested on: patients with various DSM diagnoses; settings: human, in vivo
[2] = tested on: patients with alpha frequency deficits / theta excess; set-up: species or system human; settings: in vivo
[3] = tested on: behaviorally-diagnosed psychiatric conditions (DSM categories); set-up: species or system human; settings: in vivo;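 for use code of agent in 301.7 Antisocial Personality Disorder: N marks novel agent found effective in subject subgroups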;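 for use code of agent in 301.83 Borderline Personality Disorder: N marks novel agent found effective in subject subgroups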;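 for use in 307.50 Eating Disorder NOS: N marks novel agent found effective in subject subgroups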;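 for use in 307.51 Bulimia Nervosa: N marks novel agent found effective in subject subgroups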;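 for use in 313.81 Oppositional Defiant Disorder: N marks novel agent found effective in subject subgroups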

C[C@H](N)Cc1ccccc1 [D-amphetamine]
5 patients: false negatives [1]

O=C1Nc2ccc(Cl)cc2C(c2ccccc2Cl)=NC1O (centres unmarked) [lorazepam]
only slightly responsive: response of chronic insomnia of patient 4 [2]

CC(NC(C)(C)C)C(=O)c1cccc(Cl)c1 (centres unmarked) [Bupropion]
responded positively: clinical response of patients 1-4 [2]

COC(=O)C(c1ccccc1)C1CCCCN1 (centres unmarked) [SR METHYLPHENIDATE]
N: use code of agent in 294.8 Amnestic Disorder [3] | use code of agent in 296.89 Bipolar II Disorder [3] | use code of agent in 312.34 Intermittent Explosive Disorder [3] | use code of agent in Dementia of the Alzheimer's Type [3] | use in 299.80 Pervasive Developmental Disorder NOS [3] | use in 300.00 Anxiety Disorder NOS [3] | use in 300.02 Generalized Anxiety Disorder [3] | use in 300.22 Agoraphobia Without History of Panic Disorder [3] | use in 300.23 Social Phobia [3] | use in 300.29 Specific Phobia [3] | use in 300.3 Obsessive-Compulsive Disorder [3] | use in 307.22 Chronic Motor or Vocal Tic Disorder [3] | use in 307.9 Communication Disorder NOS [3] | use in 309.21 Separation Anxiety Disorder [3] | use in 309.81 Posttraumatic Stress Disorder [3] | use in Panic Disorder [3] | use of agent in DSM category (C/N code) [3] | use of the agent in the diagnostic category (C = common use; N = novel use from rEEG features) [3]

Cc1ccc(-c2nc3ccc(C)cn3c2CC(=O)N(C)C)cc1 [ZOLIPIDEM]
N: use of the agent in the diagnostic category (C = common use; N = novel use from rEEG features) [3]

CC(C)(N)Cc1ccccc1 [PHENTERMINE]
N: use code of agent in 294.9 Cognitive Disorder NOS [3] | use code of agent in 300.4 Dysthymic Disorder [3] | use code of agent in 307.50 Eating Disorder NOS [3] | use code of agent in 312.8 Conduct Disorder [3] | use of agent in DSM category (C/N code) [3]

C[C@H](N)Cc1ccccc1 [DEXEDRINE]
N: use code of agent in 294.9 Cognitive Disorder NOS [3] | use code of agent in 296.90 Mood Disorder NOS [3] | use code of agent in 300.4 Dysthymic Disorder [3] | use code of agent in 301.13 Cyclothymic Disorder [3] | use code of agent in 307.1 Anorexia Nervosa [3] | use code of agent in 307.50 Eating Disorder NOS [3] | use code of agent in 307.51 Bulimia Nervosa [3] | use code of agent in 312.30 Impulse-Control Disorder NOS [3] | use code of agent in 312.31 Pathological Gambling [3] | use code of agent in 312.39 Trichotillomania [3] | use code of agent in 312.8 Conduct Disorder [3] | use code of agent in 313.81 Oppositional Defiant Disorder [3] | use code of agent in 315.9 Learning Disorder NOS [3]

N[C@@H](Cc1ccc(O)cc1)C(=O)O [TYROSINE]
N: use in Dementia of the Alzheimer's Type [3]

NC(=O)C[S+]([O-])C(c1ccccc1)c1ccccc1 (centres unmarked) [MODAFINIL]
N: use code of agent in 294.8 Amnestic Disorder [3]

O=C(NCCN1CCOCC1)c1ccc(Cl)cc1 [MOCLOBEMIDE]
N: use code of agent in 302.71 Hypoactive Sexual Desire Disorder [3] | use code of agent in 316 Psychological Factors Affecting Medical Condition, Hypertensive Disorder NOS [3]

NC(=O)CC[C@H](N)C(=O)O [GLUTAMINE, reference compound]
successfully treated: clinical response of granddaughter [2]
N: agent found effective in 299.00 Autistic Disorder [3] | agent found effective in 300.00 Anxiety Disorder NOS [3] | agent found effective in 300.02 Generalized Anxiety Disorder [3] | agent found effective in 300.22 Agoraphobia Without History of Panic Disorder [3] | agent found effective in 300.23 Social Phobia [3] | agent found effective in 300.29 Specific Phobia [3] | agent found effective in 300.3 Obsessive-Compulsive Disorder [3] | agent found effective in 309.81 Posttraumatic Stress Disorder [3] | agent found effective in Panic Disorder [3] | use in Dementia of the Alzheimer's Type [3]

NC1=NC(=O)C(c2ccccc2)O1 (centres unmarked) [PEMOLINE]
N: use code of agent in 294.8 Amnestic Disorder [3] | use code of agent in 294.9 Cognitive Disorder NOS [3] | use code of agent in 296.90 Mood Disorder NOS [3] | use code of agent in 300.4 Dysthymic Disorder [3] | use code of agent in 301.13 Cyclothymic Disorder [3] | use code of agent in 307.1 Anorexia Nervosa [3] | use code of agent in 307.50 Eating Disorder NOS [3] | use code of agent in 307.51 Bulimia Nervosa [3] | use code of agent in 312.30 Impulse-Control Disorder NOS [3] | use code of agent in 312.31 Pathological Gambling [3] | use code of agent in 312.8 Conduct Disorder [3] | use code of agent in 313.81 Oppositional Defiant Disorder [3] | use code of agent in 315.9 Learning Disorder NOS [3] | use of agent in DSM category (C/N code) [3]

NC(=O)N1c2ccccc2C=Cc2ccccc21 [carbamazepine]
responded positively: clinical response of patients 1-4 [2]

GABA [reference compound]
N: agent found effective in 300.00 Anxiety Disorder NOS [3] | agent found effective in 300.02 Generalized Anxiety Disorder [3] | agent found effective in 300.22 Agoraphobia Without History of Panic Disorder [3] | agent found effective in 300.23 Social Phobia [3] | agent found effective in 300.29 Specific Phobia [3] | agent found effective in 300.3 Obsessive-Compulsive Disorder [3] | agent found effective in 309.81 Posttraumatic Stress Disorder [3] | agent found effective in Panic Disorder [3] | use code of agent in 301.4 Obsessive-Compulsive Personality Disorder [3] | use code of agent in 301.7 Antisocial Personality Disorder [3] | use code of agent in 301.82 Avoidant Personality Disorder [3] | use code of agent in 301.83 Borderline Personality Disorder [3] | use code of agent in 307.42 Primary Insomnia [3] | use code of agent in 316 Psychological Factors Affecting Medical Condition, Neurodermatitis [3] | use in 300.00 Anxiety Disorder NOS [3] | use in 300.02 Generalized Anxiety Disorder [3] | use in 300.22 Agoraphobia Without History of Panic Disorder [3] | use in 300.23 Social Phobia [3] | use in 300.29 Specific Phobia [3] | use in 300.3 Obsessive-Compulsive Disorder [3] | use in 307.1 Anorexia Nervosa [3] | use in 307.22 Chronic Motor or Vocal Tic Disorder [3] | use in 307.50 Eating Disorder NOS [3] | use in 307.51 Bulimia Nervosa [3] | use in 309.21 Separation Anxiety Disorder [3] | use in 309.81 Posttraumatic Stress Disorder [3] | use in 313.81 Oppositional Defiant Disorder [3] | use in Panic Disorder [3] | use of the agent in the diagnostic category (C = common use; N = novel use from rEEG features) [3]

N[C@@H](Cc1ccc(O)cc1)C(=O)O [L-tyrosine]
successfully treated: clinical response of granddaughter [2]

CC(NC(C)(C)C)C(=O)c1cccc(Cl)c1 (centres unmarked) [BUPROPRION (LONG ACTING)]
N: use code of agent in 301.20 Schizoid Personality Disorder [3] | use code of agent in 301.22 Schizotypal Personality Disorder [3] | use code of agent in 301.4 Obsessive-Compulsive Personality Disorder [3] | use code of agent in 301.50 Histrionic Personality Disorder [3] | use code of agent in 301.6 Dependent Personality Disorder [3] | use code of agent in 301.7 Antisocial Personality Disorder [3] | use code of agent in 301.82 Avoidant Personality Disorder [3] | use code of agent in 301.83 Borderline Personality Disorder [3] | use code of agent in 302.71 Hypoactive Sexual Desire Disorder [3] | use code of agent in 307.42 Primary Insomnia [3] | use code of agent in 311 Depressive Disorder NOS [3] | use code of agent in 316 Psychological Factors Affecting Medical Condition, Atypical Asthma [3] | use code of agent in 316 Psychological Factors Affecting Medical Condition, Neurodermatitis [3] | use code of agent in Bipolar I Disorder [3] | use in 294.8 Amnestic Disorder [3] | use in 294.9 Cognitive Disorder NOS [3] | use in 296.89 Bipolar II Disorder [3] | use in 299.80 Pervasive Developmental Disorder NOS [3] | use in 300.00 Anxiety Disorder NOS [3] | use in 300.02 Generalized Anxiety Disorder [3] | use in 300.22 Agoraphobia Without History of Panic Disorder [3] | use in 300.23 Social Phobia [3] | use in 300.29 Specific Phobia [3] | use in 300.3 Obsessive-Compulsive Disorder [3] | use in 301.13 Cyclothymic Disorder [3] | use in 307.1 Anorexia Nervosa [3] | use in 307.50 Eating Disorder NOS [3] | use in 307.51 Bulimia Nervosa [3] | use in 307.9 Communication Disorder NOS [3] | use in 309.21 Separation Anxiety Disorder [3] | use in 309.81 Posttraumatic Stress Disorder [3] | use in 312.30 Impulse-Control Disorder NOS [3] | use in 312.31 Pathological Gambling [3] | use in 312.34 Intermittent Explosive Disorder [3] | use in 312.39 Trichotillomania [3] | use in 312.8 Conduct Disorder [3] | use in 313.81 Oppositional Defiant Disorder [3] | use in 315.9 Learning Disorder NOS [3] | use in Attention-Deficit/Hyperactivity Disorder [3] | use in Panic Disorder [3] | use of the agent in the diagnostic category (C = common use; N = novel use from rEEG features) [3]

NC12CC3CC(CC(C3)C1)C2 [AMANTADINE]
N: use code of agent in 312.30 Impulse-Control Disorder NOS [3] | use code of agent in 312.8 Conduct Disorder [3] | use code of agent in 313.81 Oppositional Defiant Disorder [3] | use code of agent in 315.9 Learning Disorder NOS [3] | use code of agent in Attention-Deficit/Hyperactivity Disorder [3]
